Article PMC12830207, “Targeting the protein–protein interaction between the CDC37 cochaperone and client kinases by an allosteric RAF dimer breaker” (The Journal of Biological Chemistry, 2025)

Test system: BRAF–CDC37/HSP90 chaperone complex
Assay: Co-IP of BRAF-FLAG with endogenous CDC37–HSP90 chaperone complex
Format: cell-based, human (HEK293)
Settings: HEK293, 50 μM braftide, 4 h, bortezomib pretreatment, three biological replicates
Method: HEK293 cells were seeded at 1(10)^6 cells per well for a 6-well plate or 5(10)^6 for 10 cm dishes and incubated until 40% to 60% confluency. Transfection was carried out using a 1:3 DNA:PEI-MAX ratio in OPTI-MEM and allowed 48 h for protein expression. For peptide assays, 48 h post-transfection, cells were treated with TAT–braftide carried in OPTI-MEM at indicated concentrations. Cells were harvested in cold PBS. Harvested cells were lysed in 4% SDS or modified radioimmunoprecipitation assay (RIPA) for co-IP experiments. Quantification of total protein by the bicinchoninic acid assay was carried out according to the manufacturer's protocols (Pierce; catalog no.: 23225).
Transfected HEK293 cells were treated with the indicated treatments and harvested in cold PBS. […] Samples were analyzed via immunoblot.
Western blot band densities were quantified with ImageJ software (National Institutes of Health) and normalized to the indicated loading control. Statistical significance was determined through one-/two-way ANOVA, where indicated, followed by Tukey's honest significant difference post hoc test with corresponding p values (∗p < 0.05, ∗∗p < 0.002, ∗∗∗p < 0.0002, and ∗∗∗∗p < 0.0001). […]

GRKKRRQRRRPQ-miniPEG-TRHVNILLFM [Braftide]
association of BRAF with CDC37 and HSP90: reduced their association with CDC37 and HSP90 compared with the nontreated control
